Each block holds one molecule with its values, some of them ahead of it. Active and inactive are the calls of the source.
Tests used:
[1] = target: NAD-dependent protein deacylase sirtuin-5, mitochondrial (Homo sapiens, UniProt Q9NXA8); experiment: SIRT5 desuccinylase inhibitors, dose response, biochemical, fluorescence imaging, cherry-pick, set 5 (AID 720591);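 note: desuccinylation of succinyl peptide AMC substrate read as fluorescence after trypsin release; potency of inhibitors that lower fluorescence and may act on trypsin instead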
NAD-dependent protein deacylase sirtuin-5, mitochondrial, sequence (Q9NXA8 whole entry): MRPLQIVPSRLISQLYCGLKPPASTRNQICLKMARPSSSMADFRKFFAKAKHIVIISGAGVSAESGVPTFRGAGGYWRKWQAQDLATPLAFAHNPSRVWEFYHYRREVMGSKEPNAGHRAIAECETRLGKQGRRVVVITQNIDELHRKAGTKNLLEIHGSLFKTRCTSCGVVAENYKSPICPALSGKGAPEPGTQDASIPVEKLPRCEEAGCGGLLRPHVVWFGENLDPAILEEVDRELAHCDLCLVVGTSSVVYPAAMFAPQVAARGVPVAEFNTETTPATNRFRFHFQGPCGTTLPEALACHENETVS

cells [2] = experiment: cells
[3] = inhibitors of intracellular T. cruzi replication, confirmation, NIH3T3 host cells, beta-gal luminescence (AID 2044); type: functional, cell-based;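 note: intracellular parasites grown in NIH/3T3 mouse fibroblasts as host cells; luminescent beta-galactosidase reporter signal from transgenic T. cruzi replicating inside host cells; inhibitors lower the luminescence signal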
[4] = cytotoxicity toward NIH3T3 fibroblasts, dose response, counter-screen, cell-based, ATP luminescence, mouse fibroblasts (AID 2010); type: functional;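 note: cells exposed to compound for about 90 hours before reading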
Estrogen receptor beta = Estrogen receptor beta (Homo sapiens, UniProt Q92731);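 note: recombinant ER-beta bound to coactivator SRC1 peptide in presence of estradiol agonist; inhibitors block coactivator peptide binding and lower the FRET signal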
Estrogen receptor beta, sequence (Q92731 whole entry): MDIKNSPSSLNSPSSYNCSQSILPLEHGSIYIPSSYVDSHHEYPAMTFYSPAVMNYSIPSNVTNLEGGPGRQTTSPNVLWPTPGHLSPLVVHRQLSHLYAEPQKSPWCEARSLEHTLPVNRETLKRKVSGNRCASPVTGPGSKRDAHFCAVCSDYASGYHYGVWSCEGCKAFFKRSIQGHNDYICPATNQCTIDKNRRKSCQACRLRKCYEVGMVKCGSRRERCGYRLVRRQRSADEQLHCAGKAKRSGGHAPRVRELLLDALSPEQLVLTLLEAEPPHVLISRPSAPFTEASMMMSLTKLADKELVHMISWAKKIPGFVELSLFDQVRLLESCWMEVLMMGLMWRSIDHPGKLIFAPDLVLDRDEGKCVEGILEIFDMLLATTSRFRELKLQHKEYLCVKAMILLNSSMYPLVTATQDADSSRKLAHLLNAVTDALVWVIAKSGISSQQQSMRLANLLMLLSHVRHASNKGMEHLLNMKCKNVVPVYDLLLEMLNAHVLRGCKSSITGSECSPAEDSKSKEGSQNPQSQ

[5] = inhibitors of Vif binding to APOBEC3G peptide, primary screen, biochemical, TR-FRET, GST-Vif 1-94, biotin-A3G peptide, dose response retest (AID 1117319); type: functional;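 note: TR-FRET signal of purified GST-Vif binding a biotinylated A3G peptide; inhibitors lower the FRET signal by blocking Vif and A3G binding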
Protein Tat = Protein Tat (Human immunodeficiency virus type 1 group M subtype B (isolate HXB2)(HIV-1), UniProt P04608); type: functional;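 note: tat binding to TAR RNA read out by fluorescence polarization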
Protein Tat, sequence (P04608 whole entry): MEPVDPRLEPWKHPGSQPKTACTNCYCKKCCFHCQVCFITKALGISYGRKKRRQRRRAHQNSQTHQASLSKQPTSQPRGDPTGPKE

[6] = target: T1, Dual specificity protein phosphatase 6 (Rattus norvegicus, UniProt Q64346); experiment: MKP-3 phosphatase inhibitors, primary screen, biochemical, rat enzyme, in vitro (AID 425)
T1 sequence (Q64346 whole entry): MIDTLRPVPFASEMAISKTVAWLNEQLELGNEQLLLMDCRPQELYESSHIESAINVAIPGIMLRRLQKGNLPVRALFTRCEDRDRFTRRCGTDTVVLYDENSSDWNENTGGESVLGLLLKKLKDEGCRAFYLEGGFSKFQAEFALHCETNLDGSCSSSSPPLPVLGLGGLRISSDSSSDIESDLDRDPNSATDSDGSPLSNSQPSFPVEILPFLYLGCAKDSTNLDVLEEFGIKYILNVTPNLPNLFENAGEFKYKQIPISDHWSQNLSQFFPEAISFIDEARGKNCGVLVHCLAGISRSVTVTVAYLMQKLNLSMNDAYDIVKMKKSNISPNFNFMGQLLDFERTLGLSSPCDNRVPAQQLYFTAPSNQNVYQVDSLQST

[7] = target: Mitogen-activated protein kinase 10 (Homo sapiens, UniProt P53779); experiment: Dose response biochemical screening assay for inhibitors of c-Jun N-Terminal Kinase 3 (JNK3). [Related pubchem assays: 746 ]
Mitogen-activated protein kinase 10, sequence (P53779 whole entry): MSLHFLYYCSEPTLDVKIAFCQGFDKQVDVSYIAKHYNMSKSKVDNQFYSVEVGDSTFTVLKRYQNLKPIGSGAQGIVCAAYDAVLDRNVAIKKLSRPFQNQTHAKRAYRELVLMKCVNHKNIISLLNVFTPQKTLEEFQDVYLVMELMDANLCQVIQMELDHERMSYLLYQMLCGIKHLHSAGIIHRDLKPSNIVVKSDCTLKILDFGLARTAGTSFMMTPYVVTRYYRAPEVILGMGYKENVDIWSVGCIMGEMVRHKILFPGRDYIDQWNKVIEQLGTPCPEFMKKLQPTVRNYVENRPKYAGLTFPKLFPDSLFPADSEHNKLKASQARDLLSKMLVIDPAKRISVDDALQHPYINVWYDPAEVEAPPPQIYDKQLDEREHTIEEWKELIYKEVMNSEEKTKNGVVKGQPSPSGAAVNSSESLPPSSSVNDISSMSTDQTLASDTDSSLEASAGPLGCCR

[8] = Luminescence-based cell-based high throughput dose response assay to identify activators of the DAF-12 from the parasite S. stercoralis (ssDAF-12).; type: functional
[9] = target: T2, Oxysterols receptor LXR-beta (Homo sapiens, UniProt P55055); experiment: LXR agonists, Gal4 luciferase reporter, dose response, counter-screen for ssDAF-12 agonist project, cell-based, luminescence, HEK293, S. stercoralis campaign (AID 720737); type: functional; conditions: read-out: IC50 (the source's name)
T2 sequence (P55055 whole entry): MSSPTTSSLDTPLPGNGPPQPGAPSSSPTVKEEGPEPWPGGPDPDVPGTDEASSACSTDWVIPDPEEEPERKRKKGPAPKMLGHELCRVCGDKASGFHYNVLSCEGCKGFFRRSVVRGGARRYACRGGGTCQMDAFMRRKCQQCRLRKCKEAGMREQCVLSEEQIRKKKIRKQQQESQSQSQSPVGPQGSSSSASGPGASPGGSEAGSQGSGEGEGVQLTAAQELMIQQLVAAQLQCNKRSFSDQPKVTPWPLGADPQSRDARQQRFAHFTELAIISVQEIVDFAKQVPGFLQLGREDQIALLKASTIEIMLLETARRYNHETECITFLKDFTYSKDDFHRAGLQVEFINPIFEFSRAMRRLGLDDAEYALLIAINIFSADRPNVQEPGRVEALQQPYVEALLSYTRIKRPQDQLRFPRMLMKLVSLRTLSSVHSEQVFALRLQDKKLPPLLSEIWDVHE

[10] = target: Peroxisome proliferator-activated receptor gamma/Nuclear receptor coactivator 2 (Homo sapiens, UniProt P37231); type: functional;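 note: agonist potency for raising coactivator recruitment to the receptor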
Peroxisome proliferator-activated receptor gamma/Nuclear receptor coactivator 2, sequence (P37231 whole entry): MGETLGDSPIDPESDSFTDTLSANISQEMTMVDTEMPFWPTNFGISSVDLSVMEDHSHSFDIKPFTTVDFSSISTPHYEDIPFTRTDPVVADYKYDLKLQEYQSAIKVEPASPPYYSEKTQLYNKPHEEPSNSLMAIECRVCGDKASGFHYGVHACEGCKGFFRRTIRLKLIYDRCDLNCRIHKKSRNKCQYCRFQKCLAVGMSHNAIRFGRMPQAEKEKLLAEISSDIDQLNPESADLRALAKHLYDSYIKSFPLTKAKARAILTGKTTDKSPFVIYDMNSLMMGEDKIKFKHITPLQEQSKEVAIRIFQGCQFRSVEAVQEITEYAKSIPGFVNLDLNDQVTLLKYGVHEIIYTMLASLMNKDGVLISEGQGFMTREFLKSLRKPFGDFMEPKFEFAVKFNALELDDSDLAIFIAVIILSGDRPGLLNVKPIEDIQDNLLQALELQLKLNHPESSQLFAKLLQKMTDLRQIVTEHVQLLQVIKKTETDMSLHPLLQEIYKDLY
Peroxisome proliferator-activated receptor gamma/Nuclear receptor coactivator 2, sequence (Q15596 whole entry, further chain): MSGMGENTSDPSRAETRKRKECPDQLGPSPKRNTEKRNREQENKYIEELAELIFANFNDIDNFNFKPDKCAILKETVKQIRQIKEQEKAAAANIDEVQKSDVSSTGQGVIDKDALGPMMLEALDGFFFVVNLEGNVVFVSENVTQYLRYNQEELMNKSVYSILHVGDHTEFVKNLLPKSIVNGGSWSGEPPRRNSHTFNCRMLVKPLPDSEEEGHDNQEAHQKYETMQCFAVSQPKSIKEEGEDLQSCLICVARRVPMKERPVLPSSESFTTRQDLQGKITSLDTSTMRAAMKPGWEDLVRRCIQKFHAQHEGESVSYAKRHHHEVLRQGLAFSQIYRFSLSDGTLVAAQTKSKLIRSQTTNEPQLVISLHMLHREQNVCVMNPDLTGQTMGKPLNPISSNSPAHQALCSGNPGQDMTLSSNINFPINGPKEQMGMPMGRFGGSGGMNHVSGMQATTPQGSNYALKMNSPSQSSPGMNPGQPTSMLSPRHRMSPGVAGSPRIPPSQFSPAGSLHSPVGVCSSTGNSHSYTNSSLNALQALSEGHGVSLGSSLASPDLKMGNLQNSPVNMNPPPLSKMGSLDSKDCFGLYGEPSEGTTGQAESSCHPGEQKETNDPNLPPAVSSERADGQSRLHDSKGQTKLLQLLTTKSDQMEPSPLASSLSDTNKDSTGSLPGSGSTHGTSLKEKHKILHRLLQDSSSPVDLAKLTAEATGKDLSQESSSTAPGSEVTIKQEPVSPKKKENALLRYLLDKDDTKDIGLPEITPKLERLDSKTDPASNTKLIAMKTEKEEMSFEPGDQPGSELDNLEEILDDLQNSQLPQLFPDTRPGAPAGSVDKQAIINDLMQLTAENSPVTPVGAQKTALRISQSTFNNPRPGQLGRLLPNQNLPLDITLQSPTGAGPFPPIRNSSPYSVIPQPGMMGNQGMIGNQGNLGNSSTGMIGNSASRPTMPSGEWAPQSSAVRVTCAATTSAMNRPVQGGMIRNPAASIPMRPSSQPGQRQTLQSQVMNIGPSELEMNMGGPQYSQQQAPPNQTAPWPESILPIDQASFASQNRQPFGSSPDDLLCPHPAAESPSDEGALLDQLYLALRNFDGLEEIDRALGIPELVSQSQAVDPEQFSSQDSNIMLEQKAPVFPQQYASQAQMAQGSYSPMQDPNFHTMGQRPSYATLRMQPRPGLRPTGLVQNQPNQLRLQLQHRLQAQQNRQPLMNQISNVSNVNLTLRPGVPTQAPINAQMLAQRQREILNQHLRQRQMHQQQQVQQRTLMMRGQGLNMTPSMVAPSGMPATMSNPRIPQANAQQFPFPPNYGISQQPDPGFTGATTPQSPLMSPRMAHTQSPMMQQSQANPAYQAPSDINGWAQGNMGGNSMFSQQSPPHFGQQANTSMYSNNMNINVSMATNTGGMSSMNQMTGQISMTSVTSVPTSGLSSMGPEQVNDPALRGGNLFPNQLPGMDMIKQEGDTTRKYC

[11] = A549 cell cytotoxicity, dose response, cytotoxicity control, plate reader, cherry-pick, antagonist series (AID 743412); type: functional, cell-based
[12] = LGR2 antagonists, dose response, cell-based, HEK293, CRE-luciferase reporter, cherry pick, set 2 (AID 743343); type: functional;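 note: transfected cells were stimulated with diluted bursicon conditioned medium after compound addition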
Cytochrome P450 2D6 = Cytochrome P450 2D6 (Homo sapiens, UniProt P10635);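 note: CYP2D6 member of a cytochrome P450 panel assay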
Cytochrome P450 2D6, sequence (P10635 whole entry): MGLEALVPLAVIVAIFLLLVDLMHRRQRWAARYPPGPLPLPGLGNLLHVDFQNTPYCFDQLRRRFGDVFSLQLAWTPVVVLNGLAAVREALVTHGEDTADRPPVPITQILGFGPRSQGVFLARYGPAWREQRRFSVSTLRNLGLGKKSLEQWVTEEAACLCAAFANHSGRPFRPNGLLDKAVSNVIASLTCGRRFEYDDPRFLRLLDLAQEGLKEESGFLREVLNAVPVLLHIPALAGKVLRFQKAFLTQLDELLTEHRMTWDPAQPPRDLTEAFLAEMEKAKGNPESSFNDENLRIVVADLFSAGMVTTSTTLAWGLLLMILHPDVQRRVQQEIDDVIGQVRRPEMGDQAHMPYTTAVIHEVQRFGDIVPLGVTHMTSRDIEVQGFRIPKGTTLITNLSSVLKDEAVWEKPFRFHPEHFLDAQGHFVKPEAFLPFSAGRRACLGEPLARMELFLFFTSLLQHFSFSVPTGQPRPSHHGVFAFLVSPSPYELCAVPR

[13] = MC4R antagonists, dose response, counter-screen for LGR2 antagonist project, cell-based, plate reader, cherry pick (AID 743444); type: functional;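 note: transfected HEK 293 cells stimulated with alpha-MSH peptide; potency of inhibitors of the alpha-MSH evoked signal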
[14] = target: Peroxisome proliferator-activated receptor gamma/Nuclear receptor coactivator 3 (Homo sapiens, UniProt P37231); type: functional;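 note: agonist potency for raising coactivator recruitment to the receptor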
cells [15] = experiment: cells; remark: listed apart in the source
[16] = target: Peroxisome proliferator-activated receptor gamma/Nuclear receptor coactivator 1 (Homo sapiens, UniProt P37231); type: functional;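 note: agonist potency as compounds enhance coactivator SRC-1 recruitment to PPARgamma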
Cytochrome P450 2C19 [17] = target: T3, Cytochrome P450 2C19 (Homo sapiens, UniProt P33261); experiment: Cytochrome panel assay with activity outcomes. Panel member name: p450-cyp2c19 Compounds with AC50 equal or less than 10 uM are considered active; type: functional; conditions: read-out: AC50
T3 sequence (P33261 whole entry): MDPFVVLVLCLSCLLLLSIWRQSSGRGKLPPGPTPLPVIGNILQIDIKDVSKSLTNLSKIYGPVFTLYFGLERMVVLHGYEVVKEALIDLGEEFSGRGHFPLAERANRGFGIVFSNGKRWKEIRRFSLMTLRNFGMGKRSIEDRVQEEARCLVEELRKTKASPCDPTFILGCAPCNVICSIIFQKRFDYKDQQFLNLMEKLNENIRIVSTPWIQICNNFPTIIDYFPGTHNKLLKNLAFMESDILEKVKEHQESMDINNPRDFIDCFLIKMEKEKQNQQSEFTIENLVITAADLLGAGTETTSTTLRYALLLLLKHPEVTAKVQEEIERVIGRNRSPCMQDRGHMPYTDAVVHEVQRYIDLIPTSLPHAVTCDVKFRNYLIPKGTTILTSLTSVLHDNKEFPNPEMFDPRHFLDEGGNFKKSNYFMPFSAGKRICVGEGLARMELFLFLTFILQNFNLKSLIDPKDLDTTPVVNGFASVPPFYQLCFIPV

[18] = HepG2 cell cytotoxicity, dose response, cytotoxicity control, plate reader, cherry-pick, antagonist series (AID 743416); type: functional, cell-based
[19] = target: T2, Oxysterols receptor LXR-beta; type: functional, cell-based
[20] = target: T4, Sentrin-specific protease 6 (Homo sapiens, UniProt Q9GZR1); type: functional;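 note: Luminescence-based dose-response confirmatory assay of SENP6 inhibition, following up an ultra-high-throughput screen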
T4 sequence (Q9GZR1 whole entry): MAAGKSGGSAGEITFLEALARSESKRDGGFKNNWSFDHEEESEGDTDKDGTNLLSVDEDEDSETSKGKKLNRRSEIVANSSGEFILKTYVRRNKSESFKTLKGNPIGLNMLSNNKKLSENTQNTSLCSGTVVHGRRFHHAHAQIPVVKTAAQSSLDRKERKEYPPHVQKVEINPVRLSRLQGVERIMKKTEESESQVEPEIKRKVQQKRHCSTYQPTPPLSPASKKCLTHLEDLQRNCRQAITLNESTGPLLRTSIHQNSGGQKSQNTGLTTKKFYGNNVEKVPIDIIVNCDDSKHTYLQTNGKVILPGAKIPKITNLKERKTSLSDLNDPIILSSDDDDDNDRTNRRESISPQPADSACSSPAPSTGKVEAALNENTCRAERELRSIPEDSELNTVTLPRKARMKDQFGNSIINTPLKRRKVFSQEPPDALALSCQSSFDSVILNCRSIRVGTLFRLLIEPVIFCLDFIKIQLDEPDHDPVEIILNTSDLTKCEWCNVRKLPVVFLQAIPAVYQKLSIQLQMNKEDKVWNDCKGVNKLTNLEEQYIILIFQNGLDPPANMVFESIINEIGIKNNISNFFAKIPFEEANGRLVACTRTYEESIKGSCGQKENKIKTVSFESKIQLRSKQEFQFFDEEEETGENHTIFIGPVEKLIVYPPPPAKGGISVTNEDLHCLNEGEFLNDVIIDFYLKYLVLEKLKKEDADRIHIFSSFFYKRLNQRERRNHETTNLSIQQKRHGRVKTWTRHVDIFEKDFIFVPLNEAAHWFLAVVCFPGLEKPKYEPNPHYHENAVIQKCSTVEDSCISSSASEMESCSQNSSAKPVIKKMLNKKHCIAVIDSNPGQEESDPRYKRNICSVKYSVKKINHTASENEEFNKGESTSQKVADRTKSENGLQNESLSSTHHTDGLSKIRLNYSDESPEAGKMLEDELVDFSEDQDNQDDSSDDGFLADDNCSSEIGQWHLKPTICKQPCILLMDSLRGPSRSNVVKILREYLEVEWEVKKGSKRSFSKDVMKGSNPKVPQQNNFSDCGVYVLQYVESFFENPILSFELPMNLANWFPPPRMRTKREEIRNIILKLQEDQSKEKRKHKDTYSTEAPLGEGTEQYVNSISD

[21] = target: T5, Sentrin-specific protease 7 (Homo sapiens, UniProt Q9BQF6); type: functional;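 note: Luminescence-based dose-response confirmation of ultra-high-throughput screening hits, measuring inhibition of SENP7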
T5 sequence (Q9BQF6 whole entry): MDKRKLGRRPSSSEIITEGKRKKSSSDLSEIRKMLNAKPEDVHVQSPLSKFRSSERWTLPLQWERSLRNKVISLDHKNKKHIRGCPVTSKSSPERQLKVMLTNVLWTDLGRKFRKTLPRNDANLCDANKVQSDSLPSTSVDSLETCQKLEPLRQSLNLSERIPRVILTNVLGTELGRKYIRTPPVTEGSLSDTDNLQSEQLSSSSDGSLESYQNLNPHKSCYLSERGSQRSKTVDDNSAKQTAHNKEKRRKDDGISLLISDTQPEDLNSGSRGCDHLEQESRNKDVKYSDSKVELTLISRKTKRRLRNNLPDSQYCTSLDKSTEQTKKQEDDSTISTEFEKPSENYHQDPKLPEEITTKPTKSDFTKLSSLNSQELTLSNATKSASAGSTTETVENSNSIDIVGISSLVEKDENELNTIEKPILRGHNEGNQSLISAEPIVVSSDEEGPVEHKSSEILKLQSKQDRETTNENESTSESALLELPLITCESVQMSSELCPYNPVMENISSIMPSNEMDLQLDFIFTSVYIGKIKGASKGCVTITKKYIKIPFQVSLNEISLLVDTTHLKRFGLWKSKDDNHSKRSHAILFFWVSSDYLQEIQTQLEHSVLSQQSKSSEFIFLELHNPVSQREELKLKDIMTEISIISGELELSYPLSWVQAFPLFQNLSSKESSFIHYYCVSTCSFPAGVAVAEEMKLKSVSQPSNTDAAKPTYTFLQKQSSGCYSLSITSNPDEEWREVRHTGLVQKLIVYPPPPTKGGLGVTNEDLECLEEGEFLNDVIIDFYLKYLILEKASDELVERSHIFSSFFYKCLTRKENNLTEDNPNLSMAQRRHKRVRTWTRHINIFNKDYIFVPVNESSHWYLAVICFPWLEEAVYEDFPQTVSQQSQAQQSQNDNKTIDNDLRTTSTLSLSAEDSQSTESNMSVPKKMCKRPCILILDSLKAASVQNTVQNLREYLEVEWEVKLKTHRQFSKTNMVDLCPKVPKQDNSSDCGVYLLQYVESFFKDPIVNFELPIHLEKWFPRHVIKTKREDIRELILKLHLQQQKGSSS

[22] = target: T6, Sentrin-specific protease 8 (Homo sapiens, UniProt Q96LD8); type: functional;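 note: luminescence read-out of SENP8 inhibition, dose-response confirmation following an ultra-high-throughput screen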
T6 sequence (Q96LD8 whole entry): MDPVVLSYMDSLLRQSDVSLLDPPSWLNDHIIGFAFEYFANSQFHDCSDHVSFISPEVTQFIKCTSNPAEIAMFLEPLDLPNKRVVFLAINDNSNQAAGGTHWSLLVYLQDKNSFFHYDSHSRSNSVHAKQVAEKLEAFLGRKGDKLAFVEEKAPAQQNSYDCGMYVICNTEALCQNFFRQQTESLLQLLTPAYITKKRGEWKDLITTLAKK

Caspase-3 = target: T7, Caspase-3 (Homo sapiens, UniProt P42574); type: functional;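 note: Dose-response selectivity test against caspase-3 for candidate inhibitors of sentrin-specific proteases (SENPs)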
T7 sequence (P42574 whole entry): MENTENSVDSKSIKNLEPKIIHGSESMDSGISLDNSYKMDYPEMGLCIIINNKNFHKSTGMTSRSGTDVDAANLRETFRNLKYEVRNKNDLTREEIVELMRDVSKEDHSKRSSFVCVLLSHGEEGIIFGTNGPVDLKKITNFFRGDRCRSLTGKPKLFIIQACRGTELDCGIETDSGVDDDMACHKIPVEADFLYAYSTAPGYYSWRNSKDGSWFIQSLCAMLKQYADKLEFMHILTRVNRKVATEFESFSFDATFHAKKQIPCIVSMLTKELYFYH

Cytochrome P450 2C19 [23] = target: T3, Cytochrome P450 2C19; experiment: qHTS Assay for Inhibitors and Substrates of Cytochrome P450 2C19. [Related pubchem assays: 410 ]; type: ADME; conditions: read-out: Potency

AC50 [1]: > 30 µM (inactive)
Structure (SMILES): COC(=O)[C@]12CCCCC=C1N(Cc1ccc(Cl)cc1Cl)C(=O)[C@H](CC(=O)NCc1cccc(C(F)(F)F)c1)C2

Structure (SMILES): O=c1cc(CN2CCN(C/C=C/c3ccccc3)CC2)c2cc(O)ccc2o1
EC50 (cells [2]): 0.101 µM (active) | EC50 [3]: < 0.1 µM (active) | EC50 [4]: > 60 µM (not active)

IC50 (Estrogen receptor beta): > 50 µM (not active)
Structure (SMILES): CCN1CCC(C(N)=O)CC1

IC50 [5]: > 100 µM (active) | IC50 (Protein Tat): > 100 µM (active)
Structure (SMILES): O=C(N/N=C/c1ccc[nH]1)c1cccnc1

IC50 [6]: > 100 µM (not active)
Structure (SMILES): CC(=O)[C@@H]1[C@@H]2C(=O)N(c3ccc(F)c(Cl)c3)C(=O)[C@@H]2C2c3ccccc3C=CN21 (some centres not stated)

IC50 [7]: > 93.1 µM (not active)
Structure (SMILES): Cc1ccc(C(=O)OCc2cc3ccccc3nc2O)cc1

Structure (SMILES): O=C(CCNC(=O)c1ccccc1Cl)Nc1ccc(Br)c(C(F)(F)F)c1
IC50 [8]: > 67.5 µM (inactive) | EC50 [9]: > 67.5 µM (inactive)

Structure (SMILES): Cc1ccc(NC(=O)c2sc3ccccc3c2Cl)nc1
EC50 [10]: 41.5 µM (not active) | AC50 [11]: 50.8 µM (active) | AC50 [12]: 2.52 µM (active) | AC50 (Cytochrome P450 2D6): 3.16 µM (inconclusive) | AC50 [13]: 3.36 µM (active) | EC50 [14]: 52 µM (not active) | EC50 (cells [15]): > 67.5 µM (inactive) | EC50 [16]: 53.2 µM (not active) | AC50 (Cytochrome P450 2C19 [17]): 7.94 µM (inconclusive) | AC50 [18]: > 52 µM (inactive) | EC50 [19]: > 67.5 µM (inactive)

Structure (SMILES): NNc1nc(-c2ccccc2)nc2sc3c(c12)CCCC3
EC50 (cells [15]): > 67.5 µM (inactive) | EC50 [19]: > 67.5 µM (inactive)

AC50 [1]: 10.7 µM (active) | IC50 [20]: 18.5 µM (active) | IC50 [21]: 6.21 µM (active) | IC50 (Caspase-3): 43.8 µM (active)
Structure (SMILES): Cc1c(NC(=O)c2ccc(NC(=O)C3CC3)cc2)cccc1C(=O)O
IC50 [22]: 25.8 µM (active)

AC50 (Cytochrome P450 2C19 [23]): 3.98 µM (inconclusive)
Structure (SMILES): COc1ccc(OC2C=CC(C#Cc3ccccc3)OC2CO)cc1 (configuration not stated)

Structure (SMILES): CC(=O)NC(=S)Nc1ccccc1C(=O)NC1CCCCC1
IC50 [8]: > 67.6 µM (inactive) | EC50 [9]: > 67.6 µM (inactive)

Source: ChEMBL document CHEMBL1201862, “PubChem BioAssay data set” (2004)
